# Columns and labels:
# Assay in all cases: NCI one-dose SRB anti-proliferative screen
# IGROV1 = assay type: cell-based; settings: Homo sapiens, IGROV-1; IGROV1, Ovarian Cancer; NCI one dose; read-out: Cell growth inhibition %
# How it was run: (§1)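 Compounds were tested at a single 10 µM concentration within a 60-cell-line panel covering nine tumour subpanels. Growth was read colorimetrically by sulforhodamine B staining.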
# MCF7 = assay type: cell-based; settings: Homo sapiens; MCF7, Breast cancer; NCI one dose; read-out: Cell growth inhibition %
# How it was run: as §1
# SK-MEL-2 = assay type: cell-based; settings: Homo sapiens; SK-MEL-2, Melanoma; NCI one dose; read-out: Cell growth inhibition %
# How it was run: as §1
# OVCAR-5 = assay type: cell-based; settings: Homo sapiens; OVCAR-5, Ovarian Cancer; NCI one dose; read-out: Cell growth inhibition %
# How it was run: as §1
# SN12C = assay type: cell-based; settings: Homo sapiens, SN 12C, Renal cancer, NCI one dose, read-out: Cell growth inhibition %
# How it was run: as §1
# OVCAR-8 = assay type: cell-based; settings: Homo sapiens; OVCAR-8, Ovarian Cancer; NCI one dose; read-out: Cell growth inhibition %
# How it was run: as §1
# PC-3 = assay type: cell-based; settings: Homo sapiens; PC-3, Prostate Cancer; NCI one dose; read-out: Cell growth inhibition %
# How it was run: as §1
# COLO 205 = assay type: cell-based; settings: Homo sapiens; COLO 205, Colon cancer; NCI one dose; read-out: Cell growth inhibition %
# How it was run: as §1
# EKVX = assay type: cell-based; settings: Homo sapiens; EKVX, Non-Small Cell Lung Cancer; NCI one dose; read-out: Cell growth inhibition %
# How it was run: as §1
# UO-31 = assay type: cell-based; settings: Homo sapiens; UO-31, Renal cancer; NCI one dose; read-out: Cell growth inhibition %
# How it was run: as §1
# SNB-75 = assay type: cell-based; settings: Homo sapiens; SNB-75, CNS Cancer; NCI one dose; read-out: Cell growth inhibition %
# How it was run: as §1
# MDA-MB-435 = assay type: cell-based; settings: Homo sapiens; MDA-MB-435, Melanoma; NCI one dose; read-out: Cell growth inhibition %
# How it was run: as §1
# HCT-15 = assay type: cell-based; settings: Homo sapiens; HCT-15, Colon cancer; NCI one dose; read-out: Cell growth inhibition %
# How it was run: as §1
# UACC-62 = assay type: cell-based; settings: Homo sapiens; UACC-62, Melanoma; NCI one dose; read-out: Cell growth inhibition %
# How it was run: as §1
# CCRF-CEM = assay type: cell-based; settings: Homo sapiens; CCRF-CEM, Leukemia; NCI one dose; read-out: Cell growth inhibition %
# How it was run: as §1
# HOP-62 = assay type: cell-based; settings: Homo sapiens; HOP-62, Non-Small Cell Lung Cancer; NCI one dose; read-out: Cell growth inhibition %
# How it was run: as §1
# MALME-3M = assay type: cell-based; settings: Homo sapiens; MALME-3M, Melanoma; NCI one dose; read-out: Cell growth inhibition %
# How it was run: as §1
# NCI-H522 = assay type: cell-based; settings: Homo sapiens; NCI-H522, Non-Small Cell Lung Cancer; NCI one dose; read-out: Cell growth inhibition %
# How it was run: as §1
# M14 = assay type: cell-based; settings: Homo sapiens; M14, Melanoma; NCI one dose; read-out: Cell growth inhibition %
# How it was run: as §1
# A549/ATCC = assay type: cell-based; settings: Homo sapiens; A549/ATCC, Non-Small Cell Lung Cancer; NCI one dose; read-out: Cell growth inhibition %
# How it was run: as §1
# RPMI-8226 = assay type: cell-based; settings: Homo sapiens; RPMI-8226, Leukemia; NCI one dose; read-out: Cell growth inhibition %
# How it was run: as §1
# UACC-257 = assay type: cell-based; settings: Homo sapiens; UACC-257, Melanoma; NCI one dose; read-out: Cell growth inhibition %
# How it was run: as §1
# HS 578T = assay type: cell-based; settings: Homo sapiens; HS 578T, Breast cancer; NCI one dose; read-out: Cell growth inhibition %
# How it was run: as §1
# BT-549 = assay type: cell-based; settings: Homo sapiens; BT-549, Breast cancer; NCI one dose; read-out: Cell growth inhibition %
# How it was run: as §1
# SK-OV-3 = assay type: cell-based; settings: Homo sapiens; SK-OV-3, Ovarian Cancer; NCI one dose; read-out: Cell growth inhibition %
# How it was run: as §1
# SK-MEL-28 = assay type: cell-based; settings: Homo sapiens; SK-MEL-28, Melanoma; NCI one dose; read-out: Cell growth inhibition %
# How it was run: as §1
# HCT-116 = assay type: cell-based, human; settings: for inhibition at 10 µM: Homo sapiens, HCT-116, Colon cancer, NCI one dose, read-out: Cell growth inhibition %
# How it was run: as §1
# MOLT-4 = assay type: cell-based, human; settings: for inhibition at 10 µM: Homo sapiens, MOLT-4, Leukemia, NCI one dose, read-out: Cell growth inhibition %
# How it was run: as §1
# K-562 = assay type: cell-based, human; settings: for inhibition at 10 µM: Homo sapiens, K562, K-562, Leukemia, NCI one dose, read-out: Cell growth inhibition %
# How it was run: as §1
# T-47D = assay type: cell-based, human; settings: for inhibition at 10 µM: Homo sapiens, T47D, T-47D, Breast cancer, NCI one dose, read-out: Cell growth inhibition %
# How it was run: as §1
# RXF 393 = assay type: cell-based, human; settings: Homo sapiens; RXF 393, Renal cancer; NCI one dose; read-out: Cell growth inhibition %
# How it was run: as §1
Structure (SMILES),inhibition at 10 µM (IGROV1) [%],inhibition at 10 µM (MCF7) [%],inhibition at 10 µM (SK-MEL-2) [%],inhibition at 10 µM (OVCAR-5) [%],inhibition at 10 µM (SN12C) [%],inhibition at 10 µM (OVCAR-8) [%],inhibition at 10 µM (PC-3) [%],inhibition at 10 µM (COLO 205) [%],inhibition at 10 µM (EKVX) [%],inhibition at 10 µM (UO-31) [%],inhibition at 10 µM (SNB-75) [%],inhibition at 10 µM (MDA-MB-435) [%],inhibition at 10 µM (HCT-15) [%],inhibition at 10 µM (UACC-62) [%],inhibition at 10 µM (CCRF-CEM) [%],inhibition at 10 µM (HOP-62) [%],inhibition at 10 µM (MALME-3M) [%],inhibition at 10 µM (NCI-H522) [%],inhibition at 10 µM (M14) [%],inhibition at 10 µM (A549/ATCC) [%],other results
"COc1ccc(-c2nc3cc(-c4nnc(SCC(=O)Nc5ccc(C(=O)/C=C/c6ccccc6)cc5)o4)ccc3[nH]2)cc1 [Compound 7k, 2-{5-[2-(4-Methoxyphenyl)-1 H-benzo[d]imidazol-5-yl]-1,3,4-oxadiazol-2-ylthio}-N-{4-[(E)-3-phenylacryloyl]phenyl}acetamide]",2.63,50.3,0,0,15.2,28.2,22.4,0,13.9,33.8,33.7,33.6,23.5,20.1,48.2,0,26.6,17.3,12.9,5.82,"inhibition at 10 µM (RPMI-8226): 86.7%; inhibition at 10 µM (UACC-257): 0.49%; inhibition at 10 µM (HS 578T): 7.69%; inhibition at 10 µM (BT-549): 38.1%; inhibition at 10 µM (SK-OV-3): 0%; inhibition at 10 µM (SK-MEL-28): 11.4%; Growth Percent (HCT-116; HCT-116 (Colon Cancer), 10 µM one dose): 58.69%; inhibition at 10 µM (HCT-116): 41.3%; inhibition at 10 µM (MOLT-4): 53%; Growth Percent (MOLT-4; MOLT-4 (Leukemia), 10 µM one dose): 47%; inhibition at 10 µM (K-562): 44.6%; Growth Percent (K-562; K-562 (Leukemia), 10 µM one dose): 55%; inhibition at 10 µM (T-47D): 58%; Growth Percent (T-47D; T-47D (Breast Cancer), 10 µM one dose): 42.05%; inhibition at 10 µM (RXF 393): 37.9%"
"COc1ccc(-c2nc3cc(-c4nnc(SCC(=O)Nc5ccc(C(=O)/C=C/c6ccc(Cl)cc6)cc5)o4)ccc3[nH]2)cc1 [Compound 7l, 2-{5-[2-(4-Methoxyphenyl)-1 H-benzo[d]imidazol-5-yl]-1,3,4-oxadiazol-2-ylthio}-N-{4-[(E)-3-(4-chlorophenyl)acryloyl]phenyl}acetamide]",12.8,22,0,0.55,11.7,0,5.06,0,0.26,14.7,5.35,0.7,13.9,6.01,3.98,0.53,3.9,4.71,0,0,inhibition at 10 µM (RPMI-8226): 20.1%; inhibition at 10 µM (UACC-257): 0%; inhibition at 10 µM (HS 578T): 9.4%; inhibition at 10 µM (BT-549): 1.84%; inhibition at 10 µM (SK-OV-3): 0%; inhibition at 10 µM (SK-MEL-28): 0%; inhibition at 10 µM (HCT-116): 0%; inhibition at 10 µM (MOLT-4): 11.7%; inhibition at 10 µM (K-562): 6.12%; inhibition at 10 µM (T-47D): 7.23%; inhibition at 10 µM (RXF 393): 1.82%
"COc1ccc(/C=C/C(=O)c2ccc(NC(=O)CSc3nnc(-c4ccc5[nH]c(-c6ccc(OC)cc6)nc5c4)o3)cc2)cc1 [Compound 7m, 2-{5-[2-(4-Methoxyphenyl)-1 H-benzo[d]imidazol-5-yl]-1,3,4-oxadiazol-2-ylthio}-N-{4-[(E)-3-(4-methoxyphenyl)acryloyl]phenyl}acetamide]",3.99,17.2,0,0,23.1,23.4,14.7,0,9.73,7.02,0,7.11,4.27,14.9,38.5,4.92,17.8,22.8,0,0,inhibition at 10 µM (RPMI-8226): 44.1%; inhibition at 10 µM (UACC-257): 0%; inhibition at 10 µM (HS 578T): 21.1%; inhibition at 10 µM (BT-549): 14.3%; inhibition at 10 µM (SK-OV-3): 0%; inhibition at 10 µM (SK-MEL-28): 2%; inhibition at 10 µM (HCT-116): 0%; inhibition at 10 µM (MOLT-4): 36.9%; inhibition at 10 µM (K-562): 28.7%; inhibition at 10 µM (T-47D): 31.1%; inhibition at 10 µM (RXF 393): 0%
